Measured values reported in article PMC12648313, “Enhancing the Efficacy, Utility, and Throughput of the Transcription Block Survival Peptide Library Screening Platform” (JACS Au, 2025).

How the values were obtained:
ATF2 bZIP-CRE DNA = experiment: TBS peptide library screening, competition selection; format: cell-based, human ATF2 bZIP, in E. coli BL21-Gold; conditions: 11.3-million-member library; nine rounds of selection; 9xCRE mDHFR; selective M9, 37 °C
Excerpt: This validates the new TBS design for the introduction of a transcriptional block and for the ability of antagonist peptides to restore bacterial growth in the CRE/CREB systems. We next constructed an 11.3-million-member peptide library to identify antagonists of ATF2, representing the first such effort to target this TF. This library design includes an N-terminal acidic domain, developed by Vinson and coworkers to engage bZIP DNA-binding domains (DBDs), followed by a semirandomized LZ region. Canonical coiled coil heptad repeat e and g positions were semirandomized to include glu, gln or lys options, with two exceptions to increase library diversity: e7 (ile, asn, asp or val) and g8 (leu, gln, glu or val). The a positions were randomized to select from leu, ile or val, to optimize hydrophobic packing in the coiled coil core, except a6 which also included asn or asp to investigate potential core polar interactions. The d positions were fixed as leu to promote formation of a desired parallel, dimeric coiled coil. […]
colonies: E = […] where E is the percentage of the library missing, m is the number of colonies collected and n is the library size. Library DNA quality was assessed by sequencing both the DNA pool and a number of single colonies to show degenerate codons in the correct positions in the pool and to show a diversity of library members from single […]

ATF2 [1] = target: T1, ATF2 (Homo sapiens, UniProt P15336); experiment: Circular dichroism spectra; format: binding; conditions: pH 7.4
T1 construct: human ATF2 bZIP domain spans from Asp352 to Gln410; made in house; host or cells: chemical synthesis (Fmoc solid-phase peptide synthesis), no expression host
T1 sequence (P15336 352-410): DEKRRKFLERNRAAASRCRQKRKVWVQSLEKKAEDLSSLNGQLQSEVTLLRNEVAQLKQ
Excerpt: (§1) removed before peptide concentration determination.
(§2) Peptide samples were suspended in 20

ATF2 [2] = target: T1, ATF2; experiment: Isothermal titration calorimetry; format: binding; conditions: 20 °C, pH 7.4, average of three independent experiments ± SD
Excerpt: 5 Biophysical characterization of the ATF2-ATF2W interaction. (A) CD spectra of ATF2 and ATF2W indicating an increase in helicity upon mixture of the two components, indicative of the formation of a heterodimeric coiled coil. (B) CD thermal denaturation experiment indicates a T m shift upon mixture of ATF2/ATF2W, supporting the formation of a stable heterodimer. The “average” CD trace in A and B represents an averaged value of the two unbound components which would be the trace for no interaction. (C) ITC data for ATF2W (50 μM) titrated into ATF2 (5 μM) at 20 °C. The raw power compensation plot is shown in the upper graph and the integrated data points and single site model fitted line are shown in the lower graph. […] ATF2W is selective for ATF2, with a ∼ 3-fold reduction in antagonism for CREB1/CRE and cJun/TRE despite high structural and sequence homology. […]
as §1, §2
Post-melt scans at 20°C confirmed the
Sequential 2 µL injections of ATF2W (50 µM)
Data from a control experiment whereby […]
errors are given as one standard deviation.
Fluorescence polarisation: Fluorescence polarisation was measured in a CLARIOstar

## Ac-LEQQLEELAQENEELEKEAAELQQQIARLKNEVAKLENENKTLDREIKALQREYSHKSD-NH2 [ATF2W]
ATF2 bZIP-CRE DNA
  outcome of TBS selection: single dominant hit
ATF2 [1]; 1:1 mixture with ATF2 (5 μM each) vs average of individual components (10 μM each), 20 mM potassium phosphate, 150 mM potassium fluoride, 10 mM TCEP.HCl, 222 nm
  increase in helicity upon mixing, relative to the average: 32%
ATF2 [1]; 1:1 mixture with ATF2 (5 μM each)
  222/208 ratio of heterodimer spectrum: 0.8
ATF2 [2]; ATF2W (50 μM) titrated into ATF2 (5 μM), 50 mM potassium phosphate, 150 mM NaCl, 10 mM TCEP, one-site model
  Kd: 114 ± 21 nM
ATF2 [2]; ITC
  -TΔS: 40 ± 4 kJ mol^–1
  N (stoichiometry): 0.99 ± 0.01
  ΔH: −79 ± 3 kJ mol^–1
